{"source": "ChEMBL document CHEMBL1155817", "about": "“Hanultarin, a cytotoxic lignan as an inhibitor of actin cytoskeleton polymerization from the seeds of Trichosanthes kirilowii” (Bioorg Med Chem, 2008)", "key": {"SK-MEL-2": {"test_system": "SK-MEL-2", "test": "Cytotoxicity against human SK-MEL-2 cells after 48 hrs by SRB assay", "assay_type": "functional, cell-based", "conditions": "SK-MEL-2, 48 h"}, "[1]": {"test": "Cytotoxicity against mouse B16F1 cells after 48 hrs by SRB assay", "assay_type": "functional, cell-based", "conditions": "B16-F1, 48 h"}, "A549": {"test_system": "A549", "test": "Cytotoxicity against human A549 cells after 48 hrs by SRB assay", "assay_type": "functional, cell-based", "conditions": "A549, 48 h"}, "HaCaT [2]": {"test_system": "HaCaT", "test": "Inhibition of actin polymerization in human HaCaT cells assessed as aggregate-like structure at 40 ug/mL by immunofluorescence technique", "assay_type": "cell-based"}, "HaCaT [3]": {"test_system": "HaCaT", "test": "Inhibition of actin polymerization in human HaCaT cells assessed as aggregate-like structure at 12 ug/mL by immunofluorescence technique", "assay_type": "cell-based"}, "HaCaT [4]": {"test_system": "HaCaT", "test": "Inhibition of actin polymerization in human HaCaT cells assessed as aggregate-like structure at 1 ug/mL by immunofluorescence technique", "assay_type": "cell-based"}, "HaCaT [5]": {"test_system": "HaCaT", "test": "Inhibition of actin polymerization in human HaCaT cells assessed as aggregate-like structure by immunofluorescence technique", "assay_type": "cell-based"}, "HaCaT [6]": {"test_system": "HaCaT", "test": "Inhibition of actin polymerization in human HaCaT cells assessed as aggregate-like structure at 3.5 ug/mL by immunofluorescence technique", "assay_type": "cell-based"}}, "note": "The source made the active and inactive calls. The rule behind the calls is not given here.", "data": [{"molecule": "COc1cc([C@@H]2OC[C@@H]3[C@H]2CO[C@H]3c2ccc(O)c(OC)c2)ccc1O", "note": "[(+)-PINORESINOL]", "values": [{"measurement": "IC50", "setting": "SK-MEL-2", "result": "> 40", "unit": "µg/mL"}, {"measurement": "IC50", "setting": "[1]", "result": "> 40", "unit": "µg/mL"}, {"measurement": "IC50", "setting": "A549", "result": "> 40", "unit": "µg/mL"}, {"measurement": "Activity", "setting": "HaCaT [2]", "result": "inactive"}]}, {"molecule": "COc1cc([C@H]2OC(=O)[C@H]3[C@@H]2CO[C@@H]3c2ccc(O)c(OC)c2)ccc1O", "values": [{"measurement": "IC50", "setting": "SK-MEL-2", "result": 20, "unit": "µg/mL"}, {"measurement": "IC50", "setting": "[1]", "result": 13, "unit": "µg/mL"}, {"measurement": "IC50", "setting": "A549", "result": "> 40", "unit": "µg/mL"}, {"measurement": "Activity", "setting": "HaCaT [2]", "result": "inactive"}]}, {"molecule": "COc1cc(/C=C/C(=O)OC[C@H](Cc2ccc(O)c(OC)c2)[C@H](COC(=O)/C=C/c2ccc(O)c(OC)c2)Cc2ccc(O)c(OC)c2)ccc1O", "values": [{"measurement": "IC50", "setting": "SK-MEL-2", "result": 10, "unit": "µg/mL"}, {"measurement": "IC50", "setting": "[1]", "result": 12, "unit": "µg/mL"}, {"measurement": "IC50", "setting": "A549", "result": 12, "unit": "µg/mL"}, {"measurement": "Activity", "setting": "HaCaT [3]", "result": "Active"}]}, {"molecule": "C=C1[C@@H](C)[C@H]2[C@H](Cc3ccccc3)NC(=O)[C@]23[C@H](OC(C)=O)/C=C/[C@@](C)(O)C(=O)[C@@H](C)C/C=C/[C@H]3[C@@H]1O", "values": [{"measurement": "Activity", "setting": "HaCaT [4]", "result": "Active"}]}, {"molecule": "COc1cc(C[C@@H](CO)[C@H](CO)Cc2ccc(O)c(OC)c2)ccc1O", "note": "[(+)-SECOISOLARICIRESINOL]", "values": [{"measurement": "IC50", "setting": "SK-MEL-2", "result": "> 40", "unit": "µg/mL"}, {"measurement": "IC50", "setting": "[1]", "result": "> 40", "unit": "µg/mL"}, {"measurement": "IC50", "setting": "A549", "result": "> 40", "unit": "µg/mL"}, {"measurement": "Activity", "setting": "HaCaT [2]", "result": "inactive"}]}, {"molecule": "COc1cc(/C=C/C(=O)OC[C@H](Cc2ccc(O)c(OC)c2)[C@H](CO)Cc2ccc(O)c(OC)c2)ccc1O", "note": "[HANULTARIN]", "values": [{"measurement": "IC50", "setting": "SK-MEL-2", "result": 3, "unit": "µg/mL"}, {"measurement": "IC50", "setting": "[1]", "result": 13, "unit": "µg/mL"}, {"measurement": "IC50", "setting": "A549", "result": 3, "unit": "µg/mL"}, {"measurement": "Activity", "setting": "HaCaT [5]", "result": "Dose-dependent effect"}, {"measurement": "Activity", "setting": "HaCaT [6]", "result": "Active"}]}]}
